For this experiment, the target named is Cav2.3 (Homo sapiens, UniProt Q15878). The experiment in a line: Human Cav2.3 channel calcium-influx assay. It is filed as cell-based. The following applies: HEK-293 T-Rex/Kir2.1/Cav2.3e-β4-α2δ1 cells, Fluo8 fluorescence, without pluronic acid; read-out: Cav2.3 (pIC50) (converted). As to the method:
HEK-293 T-Rex cells were transfected with pcDNA3.1-Kir2.1 to generate a stable cell line. After antibiotic selection, the obtained stable pools were analysed using FLIPR^TETRA (membrane potential assay), and a limiting dilution was performed and a HEK-293 T-Rex/Kir2.1 clone was selected. The clone was transfected with pcDNA3.1-Cav2.3e and pBud-Cav-β4-α2δ1 to generate a stable cell line where the Cav2.3e expression is inducible. After antibiotic selection, functional clone pool analysis and two successive limiting dilutions, the final clone underwent a qPCR analysis and a biophysical and pharmacological validation using patch-clamp.
A compound plate, containing 10 test compounds in eight-points dose response with n=4, was prepared. Test compounds dose response curves were prepared in automated fashion in 100% DMSO at CyBio Felix and starting from a stock solution in 100% DMSO; a defined volume was serially moved into destination wells pre-filled with the desired DMSO volume; stock solution concentration volumes were dependent on the final compounds concentrations to be tested and the final DMSO content used in the assay. For the assay test compounds dose response curves ranged from 30 μM and half log dilution with 0.3% final DMSO. In order to obtain the 8-points dose response curve all the concentrations were created by starting from a 10 mM DMSO stock solution and then moving 9.5 μL into a destination well pre-filled with 20.5 μL of 100% DMSO and repeating this step seven times. This initial step was done into 96 MTP plates, 10 compounds/plate. One 384 MTP was then reformatted to contain all the 10 compounds at 8 concentrations, quadruplicate data points. This so obtained 384 MTP compound plate served as source plate in a “mother to child” process with a CyBi®-Well dispenser in which 0.7 μL of compounds were moved into a destination plate pre-filled with 57.6 μL of Tyrode's buffer 0 mM K+, thus obtaining 4× concentrated compounds solution. In columns 1-2 and 23-24 the control wells were added. Both “source” compound plate and “destination” compound plate were barcoded and a relationship between the two plates was thus generated.
The day before the experiment, cells were detached by gentle wash with DPBS, followed by 5 min incubation at 37° C. with Trypsin solution. Detached cells were diluted with OptiMEM+Doxycycline at 0.2 μg/mL, counted and plated in Poly-D-Lysine coated black/clear bottom (15.000 c/well in 20 μl/well) by the use of a MATRIX WellMate dispenser. Plates were placed into a humidified incubator at 37° C. with 5% CO2 until the experimental day. 24 h after seeding 10 μL/well of 1.5× Fluo8 NW dye solution prepared in Tyrode's buffer 0 mM K^+ were added on top of the seeding medium. Cell plates were incubated for 40-60 min at RT in the dark. We then Injected off-line 10 μL/well of test compounds and controls 4× concentrated in Tyrode's Buffer 0 mM K+ with the CyBi®-Well instrument. Cell plates were incubated 3 minutes at RT. Finally, we injected 20 μL/well of 3× concentrated activator solution (K20-Na130-Ca2 buffer: 20 mM KCl, 130 mM NaCl, 2 mM CaCl2, 10 mM HEPES, 10 mM Glucose, final concentrations, prepared starting from “KO-Na150-Ca2” and “K150-Na0-Ca2” buffers) at FDSS7000EX instrument and read emitted fluorescence for 130 seconds.
Data analysis was performed with Genedata Screener® software and reported compounds activity as % effect in relation to the normalization standards. The Kinetic Response Value (KRV) is calculated as follows:
KRV=Maximal fluorescence recorded from second 5 to second 130 minus baseline fluorescence, computed as average from second 1 to second 2, of the kinetic trace. The KRV was normalized versus Neutral Controls and Inhibitor Controls in order to obtain the Activity[%] for each well. […] Therefore, the compound activity values were scaled (based on the two references) to a common range (two-point normalization). […]

These results are taken from US20250101003A1, “SPIROCYCLIC CAV2.3 ANTAGONISTS” (LARIO THERAPEUTICS LIMITED, priority 2021, published 2025).

Molecules are shown by their SMILES.

Chain of Cav2.3 (Q15878 1-747 limits assumed): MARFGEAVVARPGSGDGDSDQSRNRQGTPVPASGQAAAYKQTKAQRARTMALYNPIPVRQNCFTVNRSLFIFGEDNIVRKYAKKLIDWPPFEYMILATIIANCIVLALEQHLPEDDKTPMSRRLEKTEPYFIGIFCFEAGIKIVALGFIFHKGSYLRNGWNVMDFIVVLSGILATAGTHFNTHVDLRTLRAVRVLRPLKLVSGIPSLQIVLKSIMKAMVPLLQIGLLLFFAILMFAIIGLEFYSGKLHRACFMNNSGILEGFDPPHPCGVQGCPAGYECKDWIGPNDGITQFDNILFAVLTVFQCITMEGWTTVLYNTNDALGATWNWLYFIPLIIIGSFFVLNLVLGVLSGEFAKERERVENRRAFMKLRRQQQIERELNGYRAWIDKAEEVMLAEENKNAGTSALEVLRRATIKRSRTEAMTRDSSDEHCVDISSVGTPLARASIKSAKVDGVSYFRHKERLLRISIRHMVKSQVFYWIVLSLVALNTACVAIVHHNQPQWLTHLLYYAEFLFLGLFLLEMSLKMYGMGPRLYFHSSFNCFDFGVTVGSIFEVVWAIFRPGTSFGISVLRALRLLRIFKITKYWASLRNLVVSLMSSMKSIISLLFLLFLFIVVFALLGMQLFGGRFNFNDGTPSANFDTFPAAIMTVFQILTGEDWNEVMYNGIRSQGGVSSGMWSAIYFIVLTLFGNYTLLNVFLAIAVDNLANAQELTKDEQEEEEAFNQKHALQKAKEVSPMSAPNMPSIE
Chain of Cav2.3 (Q15878 1126-2313 limits assumed): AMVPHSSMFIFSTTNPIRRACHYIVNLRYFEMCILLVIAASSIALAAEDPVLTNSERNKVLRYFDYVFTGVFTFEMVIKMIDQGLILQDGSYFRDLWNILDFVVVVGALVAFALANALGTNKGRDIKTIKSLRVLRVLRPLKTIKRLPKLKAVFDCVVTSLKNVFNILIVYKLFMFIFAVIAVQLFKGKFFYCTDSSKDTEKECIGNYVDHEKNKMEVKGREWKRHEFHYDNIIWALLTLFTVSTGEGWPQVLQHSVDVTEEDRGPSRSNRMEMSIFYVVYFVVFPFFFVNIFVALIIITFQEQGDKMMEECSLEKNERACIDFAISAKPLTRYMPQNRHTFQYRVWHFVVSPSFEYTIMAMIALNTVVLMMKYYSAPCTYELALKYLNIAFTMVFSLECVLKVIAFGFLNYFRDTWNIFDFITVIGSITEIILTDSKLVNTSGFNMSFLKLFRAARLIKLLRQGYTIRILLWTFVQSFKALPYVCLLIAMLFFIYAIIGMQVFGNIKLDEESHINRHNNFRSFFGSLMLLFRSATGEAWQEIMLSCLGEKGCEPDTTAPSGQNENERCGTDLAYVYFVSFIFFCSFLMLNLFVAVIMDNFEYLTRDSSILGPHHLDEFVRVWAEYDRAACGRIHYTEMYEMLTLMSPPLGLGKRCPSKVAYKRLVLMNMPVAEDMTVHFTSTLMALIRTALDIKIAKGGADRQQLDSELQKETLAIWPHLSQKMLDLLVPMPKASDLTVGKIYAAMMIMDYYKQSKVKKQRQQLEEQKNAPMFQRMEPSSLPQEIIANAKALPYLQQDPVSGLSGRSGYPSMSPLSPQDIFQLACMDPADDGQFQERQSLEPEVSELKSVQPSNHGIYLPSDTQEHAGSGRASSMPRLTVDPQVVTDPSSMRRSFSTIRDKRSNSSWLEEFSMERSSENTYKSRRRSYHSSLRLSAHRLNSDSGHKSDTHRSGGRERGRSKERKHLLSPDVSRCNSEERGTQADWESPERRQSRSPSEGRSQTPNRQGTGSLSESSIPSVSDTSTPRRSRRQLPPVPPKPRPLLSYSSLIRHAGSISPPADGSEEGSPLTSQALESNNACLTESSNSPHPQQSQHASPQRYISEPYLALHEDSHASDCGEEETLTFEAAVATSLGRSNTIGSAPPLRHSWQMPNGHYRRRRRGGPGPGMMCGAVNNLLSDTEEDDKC

With `CC1CC2(CCC2)CN1S(=O)(=O)c1ccc2c(c1)OCCO2` (stereo not drawn) [Example 5, 6-((2,3-Dihydrobenzo[b][1,4]dioxin-6-yl)sulfonyl)-7-methyl-6-azaspiro[3.4]octane], the IC50 is 2.95 µM.

Consider `CC1CC2(CCC2)CN1S(=O)(=O)c1ccc2c(c1)OCCO2` (single isomer, unassigned) [Example 6, 6-((2,3-Dihydrobenzo[b][1,4]dioxin-6-yl)sulfonyl)-7-methyl-6-azaspiro[3.4]octane], for which the IC50 was 7.24 µM. On to `Cc1ccc(S(=O)(=O)N2CC3(CCC3)CC2C)s1` (stereo not drawn) [Example 76, 7-Methyl-6-((5-methylthiophen-2-yl)sulfonyl)-6-azaspiro[3.4]octane], for which the IC50 was 7.94 µM.

`CCC1CC2(CCC2)CN1S(=O)(=O)c1ccc2ccsc2c1` (stereo not drawn) [Example 35, 6-(Benzo[b]thiophen-6-ylsulfonyl)-7-ethyl-6-azaspiro[3.4]octane]: the IC50 is 3.8 µM. In the case of `CC1CC2(CCC2)CN1S(=O)(=O)c1ccc2ccoc2c1` (single isomer, unassigned) [Example 16, 6-(Benzofuran-6-ylsulfonyl)-7-methyl-6-azaspiro[3.4]octane] it was 4.79 µM; in that of `CCC1CC2(CCCC2)CN1S(=O)(=O)c1cccs1` (single isomer, unassigned) [Example 98, 3-Ethyl-2-(thiophen-2-ylsulfonyl)-2-azaspiro[4.4]nonane], 14.5 µM; in that of `Cc1noc(C)c1C(=O)N1CCc2ccc(S(=O)(=O)N3CC4(CCC4)CC3C)cc2C1` (stereo not drawn) [Example 93, (3,5-Dimethylisoxazol-4-yl)(7-((7-methyl-6-azaspiro[3.4]octan-6-yl)sulfonyl)-3,4-dihydroisoquinolin-2(1H)-yl)methanone], 2.04 µM. In the case of `CC1CC2(CCC2)CN1S(=O)(=O)c1cnccn1` (stereo not drawn) [Example 39, 7-methyl-6-(pyrazin-2-ylsulfonyl)-6-azaspiro[3.4]octane] it was 10.7 µM; in that of `CCC1CC2(CCC2)CN1S(=O)(=O)c1ccc2c(c1)S(=O)(=O)CC2` (single isomer, unassigned) [Example 63, 6-((7-ethyl-6-azaspiro[3.4]octan-6-yl)sulfonyl)-2,3-dihydrobenzo[b]thiophene 1,1-dioxide], 5.62 µM. For the compound `COCc1ncsc1S(=O)(=O)N1CC2(CCC2)CC1C` (stereo not drawn) [Example 89, 4-(Methoxymethyl)-5-((7-methyl-6-azaspiro[3.4]octan-6-yl)sulfonyl)thiazole], the IC50 was 10 µM. As for `CC1CC2(CCC2)CN1S(=O)(=O)c1ccc2c(c1)CN(c1ccccc1)CC2` (stereo not drawn) [Example 29, 7-((7-Methyl-6-azaspiro[3.4]octan-6-yl)sulfonyl)-2-phenyl-1,2,3,4-tetrahydroisoquinoline], the IC50 was 4.79 µM. In the case of `CC1CC2(CCC2)CN1S(=O)(=O)c1ccc(C#N)s1` (single isomer, unassigned) [Example 10, 5-((7-methyl-6-azaspiro[3.4]octan-6-yl)sulfonyl)thiophene-2-carbonitrile] it was 2.69 µM.

Take `O=S(=O)(c1cccs1)N1CC2(CCCC2)CC1C1CCCCC1` (stereo not drawn) [Example 75, 3-Cyclohexyl-2-(thiophen-2-ylsulfonyl)-2-azaspiro[4.4]nonane]: the IC50 was 37.2 µM. In the case of `CC1CC2(CCC2)CN1S(=O)(=O)c1cncnc1` (stereo not drawn) [Example 83, 7-Methyl-6-(pyrimidin-5-ylsulfonyl)-6-azaspiro[3.4]octane] it was 8.91 µM; in that of `CC1CC2(CCC2)CN1S(=O)(=O)c1ccc2c(c1)CCN(Cc1ccccc1)C2` (stereo not drawn) [Example 25, 2-Benzyl-6-((7-methyl-6-azaspiro[3.4]octan-6-yl)sulfonyl)-1,2,3,4-tetrahydroisoquinoline], 2.95 µM.

As for `CC1CC2(CCC2)CN1S(=O)(=O)c1scnc1CO` (stereo not drawn) [Example 90, (5-((7-Methyl-6-azaspiro[3.4]octan-6-yl)sulfonyl)thiazol-4-yl)methanol], the IC50 was 11.2 µM. In the case of `CCC1CC2(CCCC2)CN1S(=O)(=O)c1ccc2c(c1)CN(C(=O)C(F)(F)F)CC2` (stereo not drawn) [Example 101, 1-(7-((3-Ethyl-2-azaspiro[4.4]nonan-2-yl)sulfonyl)-3,4-dihydroisoquinolin-2(1H)-yl)-2,2,2-trifluoroethan-1-one] it was 2.45 µM; in that of `Cc1ccc(S(=O)(=O)N2CC3(CCC3)CC2C)s1` (single isomer, unassigned) [Example 78, 7-methyl-6-((5-methylthiophen-2-yl)sulfonyl)-6-azaspiro[3.4]octane], 3.63 µM; in that of `CCC1CC2(CCC2)CN1S(=O)(=O)c1ccco1` (stereo not drawn) [Example 72, 7-Ethyl-6-(furan-2-ylsulfonyl)-6-azaspiro[3.4]octane], 4.37 µM.

Regarding `CC1CC2(CCC2)CN1S(=O)(=O)c1ccc2ccoc2c1` (stereo not drawn) [Example 15, 6-(Benzofuran-6-ylsulfonyl)-7-methyl-6-azaspiro[3.4]octane], the IC50 is 1.86 µM. In the case of `CCc1nc2cc(S(=O)(=O)N3CC4(CCC4)CC3CC)ccc2o1` (stereo not drawn) [Example 51, 2-Ethyl-5-((7-ethyl-6-azaspiro[3.4]octan-6-yl)sulfonyl)benzo[d]oxazole] it was 2.75 µM; in that of `CCC1CC2(CCC2)CN1S(=O)(=O)c1ccc2c(c1)CN(C(=O)C(C)C)CC2` (stereo not drawn) [Example 34, 1-(7-((7-Ethyl-6-azaspiro[3.4]octan-6-yl)sulfonyl)-3,4-dihydroisoquinolin-2(1H)-yl)-2-methylpropan-1-one], 1.1 µM. In the case of `CC1CC2(CCC2)CN1S(=O)(=O)c1ccc(Cl)s1` (stereo not drawn) [Example 108, 6-((5-Chlorothiophen-2-yl)sulfonyl)-7-methyl-6-azaspiro[3.4]octane] it was 11.5 µM.

Regarding `Cc1ccnc2cc(S(=O)(=O)N3CC4(CCC4)CC3C)ccc12` (single isomer, unassigned) [Example 82, 4-methyl-7-((7-methyl-6-azaspiro[3.4]octan-6-yl)sulfonyl)quinoline], the IC50 was 10.7 µM. In the case of `CCC1CC2(CCC2)CN1S(=O)(=O)c1ccnc(C)c1` (stereo not drawn) [Example 92, 7-Ethyl-6-((2-methylpyridin-4-yl)sulfonyl)-6-azaspiro[3.4]octane] it was 2.45 µM; in that of `Cc1cnc(S(=O)(=O)N2CC3(CCC3)CC2C)s1` (stereo not drawn) [Example 95, 5-Methyl-2-((7-methyl-6-azaspiro[3.4]octan-6-yl)sulfonyl)thiazole], 7.76 µM; in that of `CCC1CC2(CCC2)CN1S(=O)(=O)c1cccs1` (single isomer, unassigned) [Example 70, 7-Ethyl-6-(thiophen-2-ylsulfonyl)-6-azaspiro[3.4]octane], 9.55 µM.

On to `CC1CC2(CCC2)CN1S(=O)(=O)c1ccc2c(c1)CN(C(=O)C(F)(F)F)CC2` (single isomer, unassigned) [Example 19, 2,2,2-Trifluoro-1-(7-((7-methyl-6-azaspiro[3.4]octan-6-yl)sulfonyl)-3,4-dihydroisoquinolin-2(1H)-yl)ethan-1-one], for which the IC50 is 1.78 µM.

In the case of `Cc1ccc(S(=O)(=O)N2CC3(CCC3)CC2C)o1` (single isomer, unassigned) [Example 54, 7-Methyl-6-((5-methylfuran-2-yl)sulfonyl)-6-azaspiro[3.4]octane], the IC50 is 8.13 µM. The result for `Cc1nc(C)c(S(=O)(=O)N2CC3(CCC3)CC2C)s1` (single isomer, unassigned) [Example 107, 2,4-dimethyl-5-((7-methyl-6-azaspiro[3.4]octan-6-yl)sulfonyl)thiazole] reads 6.76 µM.
